Like-named read-outs stand apart in the source and are kept apart here.
Columns and labels:
[1] = tested on: C. trachomatis Serovar E elementary bodies; experiment: Chlamydia trachomatis inhibition assay; format: cell-based
Description: C. trachomatis Serovar E elementary bodies ([…]; 10^4 IFU) were incubated for 4 hours on ice with compound, the mixture was inoculated into HeLa cell monolayers, and incubated for 1 hour. The inoculum was removed, the medium changed and the cells incubated overnight (20-22 hours). The cells were removed, fixed, permeabilized, and the infected cells detected by fluorescently tagged antibody and flow cytometry.

[2] = tested on: HIV-1 infected SupTi cells (strain IIIB); experiment: Cell to cell transmission assay (CTC); format: cell-based; conditions: Human immunodeficiency virus 1, IIIB, Series 2, P4-R5 cells, 2 hour incubation, read-out: 50% Effective Concentrations (IC50)
Description: Cell to cell transmission assay (CTC): HIV-1 infected SupTi cells (strain IIIB), killed prior to exposure, were incubated with compound and P4-R5 cells for 2 hours at 37° C., followed by washing and 48 hour incubation.

[3] = tested on: Peptrostrep. magnus; experiment: Anaerobe inhibition assay; format: cell-based; conditions: 2 strains, read-out: Minimum Inhibitory Concentrations (MICs)
[4] = Cytotoxicity assay; format: cell-based; conditions: human, HeLa cells
Description: The cells listed in Table 4 were incubated for the indicated period of time with different concentrations of ciclopiroxolamine and cell viability was measured by the 3-(4,5-dimethylthiazol-2-yl)-2,5-diphenyltetrazolium bromide (MTT) assay or by treatment with propidium iodide and fluorescence. Percent viability was calculated with respect to the viability of mock-exposed cells (cells incubated without compounds).
In the MTT assay, the effect of each agent on cell viability was determined using an assay in which dehydrogenases in viable cells cleave the compound 3-(4,5-dimethylthiazol-2-yl)-2,5-diphenyltetrazolium bromide (MTT), yielding a purple product (formazan) which can be measured spectrophotometrically (Pauwels et al., 1988). Cells were seeded into 96 well plates at a density of 3×10^4 cells/well 24 hours prior to introduction of the microbicides. Agents were diluted in as previously indicated. Agents were added to triplicate wells in half-log serial dilutions. […] At the conclusion of each experiment, cells were washed, replenished with fresh medium and incubated with MTT (250 μl/well) for 2 hours at 37° C. […] In this assay, measured absorbance is proportional to the viable cell number, and inversely proportional to the degree of cytotoxicity.

[5] = tested on: Fuso. nucleatum; experiment: Anaerobe inhibition assay; format: cell-based; conditions: Fusobacterium nucleatum, 2 strains, read-out: Minimum Inhibitory Concentrations (MICs)
[6] = tested on: Strep agalactiae; experiment: Aerobe inhibition assay; format: cell-based; conditions: 2 strains
Description: (§1) The aerobic organisms were suspended into saline to the turbidity of the 0.5 McFarland standard, diluted 1:10, pipetted into the wells of the Steers replicator head, and stamped onto the Mueller Hinton agar plates containing the serial dilutions of the antimicrobials.
(§2) The anaerobes were incubated in an anaerobic chamber at 37° C. for 2 days; aerobes were incubated in ambient air at 36° C. for 20h.

[7] = tested on: E. coli; experiment: Aerobe inhibition assay; format: cell-based; conditions: 2 strains
Description: as §1, §2

[8] = tested on: Pseudo fluorescens; experiment: Aerobe inhibition assay; format: cell-based; conditions: 1 strain, read-out: Minimum Inhibitory Concentrations (MICs)
Description: as §1, §2

[9] = tested on: Strep pyogenes; experiment: Aerobe inhibition assay; format: cell-based; conditions: 2 strains, read-out: Minimum Inhibitory Concentrations (MICs)
Description: as §1, §2

[10] = tested on: Listeria monocytogenes; experiment: Aerobe inhibition assay; format: cell-based; conditions: 2 strains, read-out: Minimum Inhibitory Concentrations (MICs)
Description: as §1, §2

[11] = tested on: Enterococcus faecium; experiment: Aerobe inhibition assay; format: cell-based; conditions: 1 strain, read-out: Minimum Inhibitory Concentrations (MICs)
Description: as §1, §2

[12] = tested on: Pseudo aerug; experiment: Aerobe inhibition assay; format: cell-based; conditions: 1 strain, read-out: Minimum Inhibitory Concentrations (MICs)
Description: as §1, §2

[13] = tested on: Peptostrep tetradius; experiment: Anaerobe inhibition assay; format: cell-based; conditions: 1 strain, read-out: Minimum Inhibitory Concentrations (MICs)
[14] = tested on: Mobiluncus curtisii; experiment: Anaerobe inhibition assay; format: cell-based; conditions: 2 strains, read-out: Minimum Inhibitory Concentrations (MICs)
[15] = tested on: HIV-IRF; experiment: PC assay (cells pre-treated with compound, washed, then virus); format: cell-based; conditions: Human immunodeficiency virus 1, PM1, read-out: 50% Effective Concentrations (IC50)
Description: PC assay: Indicator T cells (PM-1; 10^5/well) were pre-treated with compound for 1 hour at 37° C., compound was removed by washing with 4 volumes of PBS, treated cells were added to immobilized virus (HIV-IRF; 10^3 TCID50) and incubated for 8 days.
(§3) In each of the assays above, viral replication was monitored after 8 days by measuring reverse transcriptase activity.

[16] = tested on: HIV-1 strain BaL (R5 strain); experiment: Viral entry/binding inhibition assay (VBI), strain BaL; format: cell-based; conditions: Human immunodeficiency virus 1, Series 2, P4-R5 cells, 2 hour incubation, read-out: 50% Effective Concentrations (IC50)
Description: Viral entry inhibition assay (VBI): Cell-free HIV-1 (strain III-B: X4 strain; or strain BaL: R5 strain) was incubated with compound and P4-R5 cells for 2 hours at 37° C., followed by washing and 48 hour incubation.

[17] = tested on: Peptostrep asaccharolyticus; experiment: Anaerobe inhibition assay; format: cell-based; conditions: 2 strains
[18] = tested on: Peptostrep anaerobius; experiment: Anaerobe inhibition assay; format: cell-based; conditions: 1 strain, read-out: Minimum Inhibitory Concentrations (MICs)
[19] = tested on: HSV-2; experiment: HSV-2 viral binding inhibition assay; format: cell-based; conditions: Human alphaherpesvirus 2; Vero cells, plaque assay
Description: Confluent Vero cells were incubated with different concentrations of ciclopiroxolamine at 37° C. for 1 hour. 200 pfu of HSV-2 were then added to the cells in the presence of test compound and the cells were incubated at 37° C. for 1 hour. The infected cells were washed with PBS and overlaid with methylcellulose (no drug) for a plaque assay.

[20] = tested on: HIV-IRF; experiment: PV-L assay (virus mixed with compound, then cells, no washing); format: cell-based; conditions: Human immunodeficiency virus 1, PM1, Series 1, PV-L: HIV-IRF mixed with compound 1 hour, then PM-1 cells, 8 days, reverse transcriptase activity, read-out: 50% Effective Concentrations (IC50)
Description: PV-L assay: Immobilized virus (HIV-IRF; 10^3 TCID50) was mixed with compound for 1 hour at 37° C. before addition of indicator T cells (PM-1; 10^5/well) and incubated for 8 days (no washing).
as §3

[21] = tested on: C. glabrata; experiment: Aerobe inhibition assay; format: cell-based, Candida glabrata; conditions: Nakaseomyces glabratus; 3 strains; read-out: Minimum Inhibitory Concentrations (MICs)
Description: as §1, §2

[22] = read-out: Minimum Inhibitory Concentrations (MICs)

Cc1cc(C2CCCCC2)n(O)c(=O)c1.NCCO [CO, 6-Cyclohexyl-1-hydroxy-4-methyl-2-(1H)-pyridone ethanolamine salt]
IC50 [1]: 1600 µg/mL | IC50 ([1]; HeLa cell monolayers, flow cytometry): 1630 µg/mL | IC50 [2]: 97.4 µg/mL | MIC [3]: 40 µg/mL | CC50 at 1 h ([4]; Series 1, Original material, 1 hour incubation, 100 μg/ml highest conc tested): > 100 µg/mL | CC50 at 1 h ([4]; Series 3, 1 hour incubation): 859 µg/mL | MIC [5]: 40 µg/mL | Minimum Inhibitory Concentrations (MICs) [6]: 160 µg/mL | MIC [6, 22]: 80 µg/mL | Minimum Inhibitory Concentrations (MICs) [7]: 80 µg/mL | MIC ([7]; Escherichia coli, read-out: Minimum Inhibitory Concentrations (MICs)): 40 µg/mL | MIC [8]: 160 µg/mL | MIC [9]: 80 µg/mL | MIC [10]: 40 µg/mL | MIC [11]: 40 µg/mL | MIC [12]: 80 µg/mL | MIC [13]: 40 µg/mL | MIC [14]: 40 µg/mL | IC50 [15]: 0.96 µg/mL | IC50 [16]: 6.9 µg/mL | Minimum Inhibitory Concentrations (MICs) [17]: 80 µg/mL | MIC [17, 22]: 40 µg/mL | MIC [18]: 40 µg/mL | IC50 [19]: 153 µg/mL | IC50 [20]: 1.46 µg/mL | MIC [21]: 20 µg/mL

From patent publication US20050037033A1, “Microbicidal compositions and methods and use” (priority 2003, published 2005)
